This passage reports Kd results from ChEMBL document CHEMBL1152004, “Chloramphenicol: High dilution FT-IR evidence for an intramolecular hydrogen bond” (Bioorg Med Chem Lett, 1991).

For the experiment, the target named is Ribosome. In words: Inhibition of protein biosynthesis at the level of the peptidyl transferase center of the 50 s ribosomal subunit. It counts as subcellular.

In the case of `O=C(N[C@H](CO)[C@H](O)c1ccc([N+](=O)[O-])cc1)C(Cl)Cl` [CHLORAMPHENICOL], the Kd – broadly, the equilibrium constant for the complex coming apart – was roughly 1000 nM.
